From patent US20220160812A1, “A PHARMACEUTICALLY ACTIVE SUBSTANCE” (Cytopharma GmbH, priority 2019, published 2022)
“Also recorded” adds a separate entry of the source.

Columns and labels:
[1] = system: BxPC-3 human pancreatic cancer cells; experiment: subG1 cell cycle FACS apoptosis assay, BxPC-3 cells; format: cell-based; settings: BxPC-3, Protocol B, about 24 hours; for apoptosis-inducing activity (subG1) relative to peptides SEQID No 28 and SEQID No 27: SEQID No 41 at 50 μM versus monomeric peptides at 100 μM, FIG. 19
Procedure: (§1) To transfer adherent cells (A375 and BxPC-3 cells) after culture, cells are washed twice with PBS. To detach the cells, the enzyme biotase is used according to the manufacturer's instructions. For this purpose, after washing with PBS, the cells are mixed with biotase (5 ml of biotase solution per 75 cm^2 surface of the cell culture bottles) and incubated for 5 min at 37 degrees Celsius, and the biotase is separated by centrifugation. Cells cultivated in suspension (MEC-1 and lymphocytes) were transferred by dilution. The cells are suspended in culture medium and counted, each time 1.5×10^5 cells/cm^2 are seeded in 48-well plates and cultured for between 1.5 and 24 hours at 37 degrees Celsius, 5% CO2. Peptides are pre-diluted from stock solution with culture medium and 200 μl of peptide solution added so that final concentrations of 30 to 500 μM peptide are present in at most 1% (v/v) DMSO. As control solutions, culture medium without peptide (DMSO-containing) in culture medium or etoposide solution is added. After incubating the cells for several hours, the cell supernatant is transferred to a FACS tube for each batch and, after washing the cells with PBS, the wash solution is added. Then the cells are incubated with 200 μl of biotase solution for 10 min, 37° C., the cells with the biotase are also transferred to the FACS tube and the cells are collected by centrifugation for 5 min. The cell pellet is suspended in 500 μl of serum-free culture medium, then 1.5 ml of cold 80% ethanol (ethanol/PBS-80/20, v/v, stored at −20° C.) is added, the FACS tubes sealed and stored at −20 degrees Celsius for 15 to 18 h. Thereafter, the cells are centrifuged for 5 minutes at 120 g, suspended after removal of the supernatant in 2 ml PBS and incubated at 37 degrees Celsius for 30 minutes. After re-centrifugation, the cells are suspended in 0.5 ml DAPI solution and incubated for 15 min at 20 degrees Celsius in the dark. Thereafter, the cells are stored dark for a maximum of four hours in an ice bath, followed by the FACS analysis.
The adherent cells (A375 and BxPC-3 cells and MDA-MB-231, respectively) are seeded 24 hours before induction in 6-well plates in culture medium. For this, the cells are washed with PBS, then incubated with trypsin/EDTA solution at 37 degrees Celsius and suspended in culture medium. The 6-well plates are loaded with 1×10^5 cells/cm^2 in culture medium and the cells incubated for 24 hours until induction with the peptides in the incubator. For induction, the peptides are diluted in fresh culture medium. As control solutions, culture medium without peptide (DMSO-containing) in culture medium or etoposide solution is added. The cells are washed with PBS. Thereafter the peptide solution in culture medium is added to the cells. After incubation in the incubator (37° C., 5% CO2) between 1.5 and 24 hours, the cell supernatant is transferred to 15 ml centrifuge tubes, the cells are washed with 0.75 ml PBS and then with 0.5 ml versene solution. Both washings are combined with the cell supernatant. The cells are then added with 0.5 ml of trypsin/EDTA solution and incubated at about 37° C. for at most 10 minutes until the cells detached. The cell suspension is combined with cell supernatant and washings and centrifuged at about 130 g for about 10 minutes. After removing the supernatant, the cells are suspended in 400 μl of cell culture medium (without serum) and mixed with 1.2 ml of 80% ethanol/20% PBS (v/v) and incubated for 1 to 7 days at −20° C. For analysis, the cells are centrifuged at 130 g for 10 min, suspended in 2 ml PBS, and centrifuged again for 5 min. The cells are suspended in 700 μl PI buffer and incubated for 10 min at 37° C. in the dark. Subsequently, the cells are stored dark for a maximum of four hours in an ice bath, then the FACS analysis is performed. […]

[2] = system: human breast carcinoma cells (MDA-MB-231); experiment: subG1 cell cycle FACS apoptosis assay, MDA-MB-231 cells; format: cell-based; settings: about 24 hours; for apoptosis-inducing activity (subG1) relative to peptides SEQID No 28 and SEQID No 1: MDA-MB-231, SEQID No 41 at 50 μM versus monomeric peptides at 100 μM, FIG. 18
Procedure: (§2) The adherent cells (A375 and BxPC-3 cells and MDA-MB-231, respectively) are seeded 24 hours before induction in 6-well plates in culture medium. For this, the cells are washed with PBS, then incubated with trypsin/EDTA solution at 37 degrees Celsius and suspended in culture medium. The 6-well plates are loaded with 1×10^5 cells/cm^2 in culture medium and the cells incubated for 24 hours until induction with the peptides in the incubator. For induction, the peptides are diluted in fresh culture medium. As control solutions, culture medium without peptide (DMSO-containing) in culture medium or etoposide solution is added. The cells are washed with PBS. Thereafter the peptide solution in culture medium is added to the cells. After incubation in the incubator (37° C., 5% CO2) between 1.5 and 24 hours, the cell supernatant is transferred to 15 ml centrifuge tubes, the cells are washed with 0.75 ml PBS and then with 0.5 ml versene solution. Both washings are combined with the cell supernatant. The cells are then added with 0.5 ml of trypsin/EDTA solution and incubated at about 37° C. for at most 10 minutes until the cells detached. The cell suspension is combined with cell supernatant and washings and centrifuged at about 130 g for about 10 minutes. After removing the supernatant, the cells are suspended in 400 μl of cell culture medium (without serum) and mixed with 1.2 ml of 80% ethanol/20% PBS (v/v) and incubated for 1 to 7 days at −20° C. For analysis, the cells are centrifuged at 130 g for 10 min, suspended in 2 ml PBS, and centrifuged again for 5 min. The cells are suspended in 700 μl PI buffer and incubated for 10 min at 37° C. in the dark. Subsequently, the cells are stored dark for a maximum of four hours in an ice bath, then the FACS analysis is performed.
The second method analyzes the cell cycle phases which is drawn from the relative DNA content. Cells labeled by a fluorescent dye, using either DAPI or propidium iodide (PI) were analyzed by a cell sorter. The protocols for cell cultivation, treatment and preparation and staining of the cells for the flow cytometry is given in separate examples. […] When cells die by apoptosis, cellular changes lead to diminished DNA content resulting in a new peak located before the G0/G1 peak, often called “subG1” peak (Broecker-Preuss et al. 2015; Darzynkiewicz et al., 1992; Dbaibo et al. 1998; Fischbeck et al. 2011).
The “Flowing Software 2” program is used to draw from the raw data of the flow cytometer an FSC/SSC plot. This first step is performed in order to analyze a selected cell fraction excluding cells with both small FSC and small SSC values. Therefore, a gating area is drawn in a two-dimensional FSC/SSC plot (region R-1) which contains mainly intact cells, but no small vesicles. This is initially done for each cell type using reference cells which were not incubated with substances inducing cell death. By this selection of the cell fraction, a bias is prevented which would include a very high number of small cellular vesicles (apoptotic bodies) that are formed by membrane blebbing from dying cells, which have a low DNA content but which, by their large number, would increase the fraction of presumptive subG1 cells. […] In this DNA content plot, an analytical region is drawn in the area of lower DNA content to count the cells that show a subG1 peak, as illustrated in FIG. 1. The fraction of apoptotic cells is defined as the fraction of cells with DNA content in the subG1 region as part of the total number of cells in the DNA content plot (FIG. 1).
The evaluation of the FACS analysis to determine the subG1 data was also carried out with the program Flowing Software, version 2.5.1. The fluorescence in the respective analysis channel for DAPI or propidium iodide was plotted as a histogram, the data from the respectively defined region R-1 being utilized (see FIG. 1). […]

A375 melanoma cells = experiment: subG1 cell cycle FACS apoptosis assay, A375 melanoma cells; format: cell-based, human; settings: A375, Protocol B, 100 μM, about 24 hours, FIG. 2
Procedure: as §1, §2
The proportion of cells which have died was determined by two methods, both rely on the analysis of cells by flow cytometry, often called FACS analysis. […]

k-k-w-m-v-v-y-f-r-k-s-g-s-g-s-k-k-w-m-v-v-y-f-r-k [SEQID No 41]
apoptosis-inducing activity (subG1) relative to peptides SEQID No 28 and SEQID No 27 [1]: at least double | apoptosis-inducing activity (subG1) relative to peptides SEQID No 28 and SEQID No 27 ([1]; listed as dimeric peptide): more than two-fold | apoptosis-inducing activity (subG1) relative to peptides SEQID No 28 and SEQID No 1 [2]: at least double | apoptosis-inducing activity (subG1) relative to peptides SEQID No 28 and SEQID No 1 ([2]; listed as dimeric peptide): more than two-fold

k-m-v-v-y-f-r [SEQID No 2]
apoptosis induction (subG1), comparison in words ([1]; 100 μM, FIG. 14): stronger apoptosis induction compared to SEQ C1 | apoptosis-inducing activity (subG1), comparison in words ([2]; MDA-MB-231, 200 μM, FIG. 13): increased apoptosis-inducing activity compared to the peptide SEQ C1

k-w-m-v-v-y-f-r [SEQID No 9]
apoptosis efficiency (subG1), comparison in words (A375 melanoma cells): extraordinary increased activity compared to peptide SEQ C1 | apoptosis efficiency (subG1) in view of Peptide SEQ C1 ([1]; 100 μM, FIG. 14): at least fourfold | apoptosis efficiency (subG1) in view of Peptide SEQ No 12 ([1]; 100 μM, FIG. 14): at least threefold | apoptosis induction (subG1), comparison in words ([1]; 100 μM, FIG. 14): stronger apoptosis induction compared to SEQ C1; also recorded: strongly improved activity compared to peptide SEQID No 1

m-v-v-y-f-r-k [SEQID No 4]
apoptosis-inducing activity (subG1), comparison in words ([2]; MDA-MB-231, 200 μM, FIG. 13): increased apoptosis-inducing activity compared to the peptide SEQ C1

m-v-v-y-f-r-w [SEQID No 3]
apoptosis induction (subG1), comparison in words ([1]; 100 μM, FIG. 14): stronger apoptosis induction compared to SEQ C1 | apoptosis-inducing activity (subG1), comparison in words ([2]; MDA-MB-231, 200 μM, FIG. 13): increased apoptosis-inducing activity compared to the peptide SEQ C1

q-k-w-m-v-v-y-f-r-k [SEQID No 28]
apoptosis-inducing activity (subG1), comparison in words ([2]; MDA-MB-231, 100 μM, FIG. 15): higher apoptosis-inducing activity | apoptosis-inducing activity (subG1), comparison in words ([2]; MDA-MB-231, 100 μM, FIG. 15, listed as SEQID NO 28): improvement over SEQID NO 27

r-a-s-k-s-q-t-v-k-k-w-m-v-v-y-f-r-k-s-a-r [SEQID No 35]
apoptosis efficiency (subG1), in words ([1]; 100 and 200 μM, Examples 107-110): slightly higher apoptosis than the peptide sequence SEQID NO 33; also recorded: considerable efficiency to induce apoptosis in pancreatic cancer cells

r-s-t-q-k-w-m-v-v-y-f-r-k [SEQID No 40]
apoptosis efficiency (subG1), comparison in words ([1]; 100 μM, FIG. 17): weaker activity | apoptosis-inducing activity (subG1), comparison in words ([2]; MDA-MB-231, 100 μM, FIG. 16, listed as SEQID 40): slightly smaller efficiency than SEQID No 33

w-m-v-v-y-f-r [SEQID No 1]
apoptosis induction (subG1), comparison in words ([1]; 100 μM, FIG. 14): stronger apoptosis induction compared to SEQ C1 | apoptosis-inducing activity (subG1), comparison in words ([2]; MDA-MB-231, 200 μM, FIG. 13): increased apoptosis-inducing activity compared to the peptide SEQ C1

w-w-m-v-v-y-f-r [SEQID No 12]
apoptosis induction (subG1), comparison in words ([1]; 100 μM, FIG. 14): stronger apoptosis induction compared to SEQ C1 | apoptosis-inducing activity (subG1), comparison in words ([2]; MDA-MB-231, 200 μM, FIG. 13): slightly decreased activity compared to peptide SEQID No 1; also recorded: remarkably improved efficiency than SEQ C1
